Results as given in US20220056043A1, “NITROGEN-CONTAINING FUSED CYCLIC COMPOUND, PREPARATION METHOD THEREFOR AND USE THEREOF” (SICHUAN KELUN-BIOTECH BIOPHARMACEUTICAL CO., LTD., priority 2019, published 2022).

Columns and labels:
CYP2D6 = target: T1, CYP2D6 (Homo sapiens, UniProt P10635); assay: CYP enzyme inhibition test, Vivid CYP2D6 Cyan Screening Kit; type: in vitro ADME; details: for inhibitory effect on CYP2D6: conclusion in words
T1 construct: purchased
Experimental: (§1) Experimental Example 6: CYP Enzyme Inhibition Test CYP450 is the most important enzyme system in drug metabolism. The enzymes involved in metabolism interact with drugs, and the most important ones are CYP1A2, CYP2D6 and CYP3A4. P450-Glo™ CYP1A2 Screening System, Vivid® CYP2D6 Cyan Screening Kit and Vivid® CYP3A4 Red Screening Kit were used in this test, and the inhibitory effects of the compounds on CYP1A2, CYP2D6 and CYP3A4 were determined according to the instructions of the kit.

CYP1A2 = target: T2, CYP1A2 (Homo sapiens, UniProt P05177); assay: CYP enzyme inhibition test, P450-Glo CYP1A2 Screening System; type: in vitro ADME; details: for inhibitory effect on CYP1A2: conclusion in words
T2 construct: purchased
T2 sequence (P05177 1-516): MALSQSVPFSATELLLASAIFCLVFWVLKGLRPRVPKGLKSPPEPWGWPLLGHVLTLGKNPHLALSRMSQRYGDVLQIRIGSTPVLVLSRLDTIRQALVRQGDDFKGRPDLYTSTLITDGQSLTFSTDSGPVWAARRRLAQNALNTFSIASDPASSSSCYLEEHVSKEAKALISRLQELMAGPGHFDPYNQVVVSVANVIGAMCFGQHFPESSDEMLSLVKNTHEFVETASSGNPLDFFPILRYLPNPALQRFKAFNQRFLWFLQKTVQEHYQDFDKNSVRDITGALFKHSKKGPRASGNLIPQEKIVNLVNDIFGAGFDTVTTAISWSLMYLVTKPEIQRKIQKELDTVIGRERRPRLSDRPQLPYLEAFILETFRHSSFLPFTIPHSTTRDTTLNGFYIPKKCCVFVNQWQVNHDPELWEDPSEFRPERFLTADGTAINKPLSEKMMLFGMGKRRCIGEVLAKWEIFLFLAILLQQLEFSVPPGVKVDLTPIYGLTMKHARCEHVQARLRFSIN
Experimental: as §1

hERG potassium channel [1] = target: T3, hERG potassium channel (Homo sapiens, UniProt Q12809)
hERG potassium channel [2] = target: T3, hERG potassium channel; assay: in vitro
hERG potassium channel [3] = target: T3, hERG potassium channel; assay: hERG test, Predictor hERG Fluorescence Polarization Assay Kit; type: binding; set-up: expressed in transfected cells; host or cells: HEK-293; details: test concentrations 1 μM and 10 μM
Description: Experimental Example 5: hERG Test
1. Predictor™ hERG Fluorescence Polarization Assay Kit (ThermoFisher) was used to test the inhibitory effect of the compounds on hERG potassium channel according to the instructions of the kit.

T3 sequence (Q12809 whole entry): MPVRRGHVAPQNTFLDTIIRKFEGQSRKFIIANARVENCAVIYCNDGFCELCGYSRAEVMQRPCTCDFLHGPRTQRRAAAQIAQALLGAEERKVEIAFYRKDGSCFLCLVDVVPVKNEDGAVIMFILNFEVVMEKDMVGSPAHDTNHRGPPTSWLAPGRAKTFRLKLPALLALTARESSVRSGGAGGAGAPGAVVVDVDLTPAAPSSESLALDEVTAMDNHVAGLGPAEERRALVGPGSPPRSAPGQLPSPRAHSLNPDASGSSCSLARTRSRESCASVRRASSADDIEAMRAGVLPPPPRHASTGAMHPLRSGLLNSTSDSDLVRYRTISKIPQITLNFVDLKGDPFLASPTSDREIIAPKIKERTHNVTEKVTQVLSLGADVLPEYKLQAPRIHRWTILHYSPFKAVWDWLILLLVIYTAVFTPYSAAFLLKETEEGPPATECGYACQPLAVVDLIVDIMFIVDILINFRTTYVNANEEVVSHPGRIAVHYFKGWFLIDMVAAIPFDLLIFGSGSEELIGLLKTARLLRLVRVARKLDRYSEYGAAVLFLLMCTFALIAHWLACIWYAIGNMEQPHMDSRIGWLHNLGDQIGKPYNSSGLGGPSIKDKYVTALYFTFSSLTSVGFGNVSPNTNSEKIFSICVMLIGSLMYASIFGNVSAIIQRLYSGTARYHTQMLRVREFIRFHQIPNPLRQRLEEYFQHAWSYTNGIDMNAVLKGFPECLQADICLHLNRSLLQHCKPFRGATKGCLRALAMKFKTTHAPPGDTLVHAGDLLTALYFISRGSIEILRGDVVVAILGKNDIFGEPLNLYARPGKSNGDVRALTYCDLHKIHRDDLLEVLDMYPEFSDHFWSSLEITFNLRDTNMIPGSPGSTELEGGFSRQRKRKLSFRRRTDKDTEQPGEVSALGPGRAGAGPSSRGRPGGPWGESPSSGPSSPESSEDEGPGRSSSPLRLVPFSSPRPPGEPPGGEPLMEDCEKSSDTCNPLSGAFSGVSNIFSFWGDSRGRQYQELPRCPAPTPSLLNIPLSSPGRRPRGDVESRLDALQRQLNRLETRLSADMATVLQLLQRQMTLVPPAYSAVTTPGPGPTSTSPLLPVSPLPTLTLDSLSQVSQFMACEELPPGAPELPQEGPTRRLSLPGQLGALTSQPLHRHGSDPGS
T1 sequence (P10635 whole entry): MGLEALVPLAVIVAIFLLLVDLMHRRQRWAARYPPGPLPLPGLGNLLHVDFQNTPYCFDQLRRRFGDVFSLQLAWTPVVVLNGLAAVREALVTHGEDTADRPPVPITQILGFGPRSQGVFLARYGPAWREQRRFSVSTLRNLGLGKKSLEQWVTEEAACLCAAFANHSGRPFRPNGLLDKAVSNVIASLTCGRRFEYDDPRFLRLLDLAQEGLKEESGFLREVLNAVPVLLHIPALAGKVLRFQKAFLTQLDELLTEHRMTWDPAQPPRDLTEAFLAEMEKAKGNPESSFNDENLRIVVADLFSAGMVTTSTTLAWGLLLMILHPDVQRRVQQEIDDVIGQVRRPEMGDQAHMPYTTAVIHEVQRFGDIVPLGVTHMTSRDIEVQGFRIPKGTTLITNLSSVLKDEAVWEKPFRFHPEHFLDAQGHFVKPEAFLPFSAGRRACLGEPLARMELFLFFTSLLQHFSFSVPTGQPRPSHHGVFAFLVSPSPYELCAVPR

SMILES | IC50 (CYP2D6) | inhibitory effect on CYP2D6 (CYP2D6) | IC50 (CYP1A2) | inhibitory effect on CYP1A2 (CYP1A2) | inhibitory effect on hERG (hERG potassium channel [1]) | inhibition at 10 μM (hERG potassium channel [2]) | IC50 (hERG potassium channel [3])
Nc1cc(N[C@@H]2CC[C@H](O)C2)c2sc(-c3ccn[nH]3)cc2n1 [Compound 31, (1S,3R)-3-((5-amino-2-(1H-pyrazol-5-yl)thieno[3,2-b]pyridin-7-yl)amino)cyclopentanol] | > 10 µM | no apparent inhibitory effects | > 10 µM | no apparent inhibitory effects |  |  | 
COCCNc1cc(N)nc2cc(-c3ccn[nH]3)sc12 [Compound 100, N^7-(2-methoxyethyl)-2-(1H-pyrazol-5-yl)thieno[3,2-b]pyridine-5,7-diamine] |  |  |  |  | no apparent inhibitory effect | 5.42 ± 2.2% | 
Nc1cc(NC2CCC(O)CC2)c2sc(-c3ccn[nH]3)cc2n1 (stereo not drawn) [Compound 114, 4-((5-amino-2-(1H-pyrazol-5-yl)thieno[3,2-b]pyridin-7-yl)amino)-1-cyclohexanol] | > 10 µM | no apparent inhibitory effects | > 10 µM | no apparent inhibitory effects |  |  | 
Nc1cc(NCC(F)F)c2sc(-c3ccn[nH]3)cc2n1 [Compound 116, N^7-(2,2-difluoroethyl)-2-(1H-pyrazol-5-yl)thieno[3,2-b]pyridine-5,7-diamine] |  |  |  |  | no apparent inhibitory effect | 18.5 ± 4.98% | 
Nc1cc(NCC2CCOCC2)c2sc(-c3ccn[nH]3)cc2n1 [Compound 120, 2-(1H-pyrazol-5-yl)-N^7-((tetrahydro-2H-pyran-4-yl)methyl)thieno[3,2-b]pyridine-5,7-diamine] |  |  |  |  | no apparent inhibitory effect | 11.7 ± 0.7% | 

Now from value to molecule, other results behind:

IC50 (CYP2D6) | inhibitory effect on CYP2D6 (CYP2D6) | IC50 (CYP1A2) | inhibitory effect on CYP1A2 (CYP1A2) | SMILES | inhibitory effect on hERG (hERG potassium channel [1]) | inhibition at 10 μM (hERG potassium channel [2]) | IC50 (hERG potassium channel [3])
> 10 µM | no apparent inhibitory effects | > 10 µM | no apparent inhibitory effects | COC(C)(C)CNc1cc(N)nc2cc(-c3ccn[nH]3)sc12 [Compound 111, N^7-(2′-methoxy-2′-methylpropyl)-2-(1H-pyrazol-5-yl)thieno[3,2-b]pyridine-5,7-diamine] |  |  | > 10 µM
> 10 µM | no apparent inhibitory effects | > 10 µM | no apparent inhibitory effects | Nc1cc(NC2COC2)c2sc(-c3ccn[nH]3)cc2n1 [Compound 112, N^7-(oxetan-3-yl)-2-(1H-pyrazol-5-yl)thieno[3,2-b]pyridine-5,7-diamine] |  |  | > 10 µM
> 10 µM | no apparent inhibitory effects | > 10 µM | no apparent inhibitory effects | CC(C)(CO)CNc1cc(N)nc2cc(-c3ccn[nH]3)sc12 [Compound 115, 3-((5-amino-2-(1H-pyrazol-5-yl)thieno[3,2-b]pyridin-7-yl)amino)-2,2-dimethyl-1-propanol] | no apparent inhibitory effect | 8.26 ± 3.66% | 
